Source: US8618114B2 (priority 2008, dated 2013)
Structures can show the parent of a compound that is named as a salt.

target: T1, 5-HT6 receptor (Homo sapiens (Human), UniProt P50406); assay: competitive radioligand binding ([3H] Lysergic acid diethylamide) to serotonin 5-HT6 receptors, HeLa cell membranes; details: read-out: IC50, competitive assay of serotonin 5-HT6 receptor inhibition; displacement of 1.5 nM [3H] Lysergic acid diethylamide, 120 min at 37° C.
T1 sequence (P50406 whole entry): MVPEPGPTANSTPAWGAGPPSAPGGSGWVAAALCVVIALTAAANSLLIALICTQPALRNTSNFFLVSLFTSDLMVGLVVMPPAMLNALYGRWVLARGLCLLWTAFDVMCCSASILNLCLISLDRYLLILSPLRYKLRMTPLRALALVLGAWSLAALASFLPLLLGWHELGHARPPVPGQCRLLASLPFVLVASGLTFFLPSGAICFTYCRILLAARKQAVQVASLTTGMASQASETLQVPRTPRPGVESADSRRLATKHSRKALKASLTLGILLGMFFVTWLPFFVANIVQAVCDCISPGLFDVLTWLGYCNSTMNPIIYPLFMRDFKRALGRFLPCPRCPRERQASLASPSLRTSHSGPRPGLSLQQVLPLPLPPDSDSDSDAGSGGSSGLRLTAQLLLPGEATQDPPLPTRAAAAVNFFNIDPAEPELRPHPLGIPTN
Procedure: Determination of activity of the compounds of the general formula 1 in the setting of competitive binding to serotonin 5-HT6 receptors.
Screening of the disclosed compounds for their potential ability to interact with serotonin 5-HT6 receptors was carried out by method of radioligand binding. For this purpose membrane species were prepared from expressing recombinant human 5-HT6 receptors HeLa cells by means of their homogenization in glass homogenizer with subsequent separation of plasmatic membranes from cell nucli, mitochondria's and cell wreckages by differential centrifugation. Determination of tested compounds binding to 5-HT6 receptors was carried out according to the method described in [Monsma F J Jr, Shen Y, Ward R P, Hamblin M W and Sibley D R, Cloning and expression of a novel serotonin receptor with high affinity for tricyclic psychotropic drugs. […] After incubation the samples were filtered in vacuo on glass-microfiber filters G/F (Millipor, USA), filters were washed three times with cold solution of the medium and radioactivity was measured by scintillation counter MicroBeta 340 (PerkinElmer, USA). Nonspecific binding which made up 30% of overall binding was determined by incubation of membrane preparations with radioligand in the presence of 5 μM Serotonin (5-HT). Methiothepin was used as positive control. Binding of the tested compounds to the receptor was determined by their ability to displace the radioligand and expressed in percent of displacement. The percent of displacement was calculated according to the following equation:
[formula] wherein: TA—was overall radioactivity in the presence of radioligand only, CA—was radioactivity in the presence of radioligand and tested compound and NA—was radioactivity in the presence of radioligand and Serotonin (5 μM).

IC50 [nM]	Compound
15.3	CNc1nn2c(C)c(CC(=O)N(C)C)c(C)nc2c1S(=O)(=O)c1ccccc1 [1.2.19(1).CH3CO2H]
1.28	CCOC(=O)Cc1c(C)nc2c(S(=O)(=O)c3ccccc3)c(NC(C)C)nn2c1C [1.2.13(3)]
31	CNc1nn2c(N3CCOCC3)cc(C)nc2c1S(=O)(=O)c1ccccc1 [1.2.12(5), 5-methyl-2-methylamino-7-(morfolin-4-yl)-3-phenylsulfonyl-pyrazolo[1,5-a]pyrimidine]

target: T1, 5-HT6 receptor; assay: functional assay for serotonin 5-HT6 receptor inhibition (serotonin-induced intracellular cAMP, LANCE cAMP kit, HEK 293 cells); assay type: cell-based; details: HEK 293 cells with expressed 5-HT6 receptor; reduction of serotonin-induced intracellular cAMP
Procedure: Determination of antagonistic activity of compounds of the general formula 1 towards 5-HT6 receptors. Compounds of the general formula 1 were tested for their ability to prevent 5-HT6 receptors activation by serotonin. HEK 293 cells (cells of human embryo's kidney) with artificially expressed 5-HT6 receptor, activation of which by serotonin leads to increasing the concentration of intracellular cAMP, were used. The level of intracellular cAMP was determined using reagent kit LANCE cAMP (PerkinElmer) according to the method described by the manufacturer of the kit [http://las.perkinelmer.com/content/Manuals/MAN_LANCEcAMP384KitUser.pdf]. Effectiveness of the compounds was estimated by their ability to reduce the level of intracellular cAMP induced by serotonin. Table 4 presents IC50 values for the compounds of general formula 1 in the setting of functional assay for serotonin 5-HT6 receptor inhibition. The data given testify their moderate or high antagonistic activity.

Compound	IC50 [nM]
CSc1nn2cccnc2c1S(=O)(=O)c1cccc(C)c1 [1.1.1(6)]	2200
CSc1nn2cccnc2c1S(=O)(=O)c1ccc(F)cc1 [1.1.1(7)]	1870
CSc1nn2cccnc2c1S(=O)(=O)c1cccc(Cl)c1 [1.1.1(3)]	473
CSc1nn2cccnc2c1S(=O)(=O)c1ccccc1 [1.1.1(1), 2-methylsulfanyl-3-phenylsulfonyl-pyrazolo[1,5-a]pyrimidine]	5200
CNc1nn2c(-c3ccccn3)cc(-c3ccccn3)nc2c1S(=O)(=O)c1ccccc1 [1.2(4)]	723
CSc1nn2cccnc2c1S(=O)(=O)c1ccc(F)c(Cl)c1 [1.1.1(4)]	912
CSc1nn2ccc(C)nc2c1S(=O)(=O)c1ccc(F)c(Cl)c1 [1.1.2(5), 5-methyl-2-methylsulfanyl-3-(4-fluoro-3-chlorophenylsulfonyl)-pyrazolo[1,5-a]pyrimidine]	187
CNc1nn2cccnc2c1S(=O)(=O)c1ccccc1 [1.2.1(1), 2-methylamino-3-phenylsulfonyl-pyrazolo[1,5-a]pyrimidine]	76
CNc1nn2c(C)c(CCCN)c(C)nc2c1S(=O)(=O)c1ccccc1 [1.2.22(4).HCl]	78
CNc1nn2c(N3CCOCC3)cc(C)nc2c1S(=O)(=O)c1ccccc1 [1.1.12(5)]	197
CSc1nn2c(CO)cc(C)nc2c1S(=O)(=O)c1ccccc1 [1.1.6(1), 7-(hydroxymethyl)-5-methyl-2-methylsulfanyl-3-phenylsulfonyl-pyrazolo[1,5-a]pyrimidine]	73
COCc1cc(C)n2nc(SC)c(S(=O)(=O)c3ccccc3)c2n1 [1.1.5(1), 7-methyl-2-methylsulfanyl-5-(methoxymethyl)-3-phenylsulfonyl-pyrazolo[1,5-a]pyrimidine]	414
CSc1nn2c(C)ccnc2c1S(=O)(=O)c1ccc(F)c(Cl)c1 [1.1.3(5), 7-methyl-2-methylsulfanyl-3-(4-fluoro-3-chlorophenylsulfonyl)-pyrazolo[1,5-a]pyrimidine]	156
CNc1nn2c(-c3cccnc3)cc(C)nc2c1S(=O)(=O)c1ccccc1 [1.2.9(7), 5-methyl-2-methylamino-7-(pyridin-3-yl)-3-phenylsulfonyl-pyrazolo[1,5-a]pyrimidine]	341
CNc1nn2c(C)cc(-c3ccncc3)nc2c1S(=O)(=O)c1ccccc1 [1.2.8(8), 7-methyl-2-methylamino-5-(pyridin-4-yl)-3-phenylsulfonyl-pyrazolo[1,5-a]pyrimidine]	4
CSc1nn2c(C)c(Oc3cccnc3)c(C)nc2c1S(=O)(=O)c1ccccc1 [1.1(7)]	514
COc1cc(-c2ccccn2)nc2c(S(=O)(=O)c3ccccc3)c(SC)nn12 [1.1.8(2), 2-methylsulfanyl-7-methoxy-5-(pyridin-2-yl)-3-phenylsulfonyl-pyrazolo[1,5-a]pyrimidine]	30100
CNc1nn2c(CCN)cc(C)nc2c1S(=O)(=O)c1ccccc1 [1.2.24(3).HCl]	30
CSc1nn2ccc(C)nc2c1S(=O)(=O)c1ccccc1 [1.1.2(1), 5-methyl-2-methylsulfanyl-3-phenylsulfonyl-pyrazolo[1,5-a]pyrimidine]	450
CNc1nn2c(N(C)C)cc(-c3cccnc3)nc2c1S(=O)(=O)c1ccccc1 [1.2.12(9), 7-dimethylamino-2-methylamino-5-(pyridin-3-yl)-3-phenylsulfonyl-pyrazolo[1,5-a]pyrimidine]	13
CNc1nn2c(-c3cccnc3)ccnc2c1S(=O)(=O)c1ccccc1 [1.2.9(2), 2-methylamino-7-(pyridin-3-yl)-3-phenylsulfonyl-pyrazolo[1,5-a]pyrimidine]	1040
CNc1nn2ccc(C)nc2c1S(=O)(=O)c1ccccc1 [1.2.2(1), 5-methyl-2-methylamino-3-phenylsulfonyl-pyrazolo[1,5-a]pyrimidine]	16

Other lines, results leading:

IC50 [nM]	Compound
70	CNc1nn2c(C)cc(CN(C)C)nc2c1S(=O)(=O)c1cccc(F)c1 [1.2.23(12).HCl]
35	CNc1nn2c(CN(C)C)cc(C)nc2c1S(=O)(=O)c1cccc(F)c1 [1.2.24(12).HCl]
37	CNc1nn2c(C)cc(CN)nc2c1S(=O)(=O)c1ccc(F)cc1 [1.2.23(2).HCl]
25.2	CNc1nn2c(C)c(CN)c(C)nc2c1S(=O)(=O)c1cccc(F)c1 [1.2.22(6).HCl]
56.4	CNc1nn2c(C)c(CCN(C)C)c(C)nc2c1S(=O)(=O)c1ccccc1 [1.2.22(14).HCl]
1860	CNc1nn2c(N(C)CCN(C)C)cc(C)nc2c1S(=O)(=O)c1ccccc1 [1.2.12(12)]
899	CNc1nn2c(CCN(C)C)cc(C)nc2c1S(=O)(=O)c1ccccc1 [1.2.24(14).HCl]
4	CNc1nn2c(CO)cc(C)nc2c1S(=O)(=O)c1ccccc1 [1.2.6(1), 7-(hydroxymethyl)-5-methyl-2-methylamino-3-phenylsulfonyl-pyrazolo[1,5-a]pyrimidine]
26	CNc1nn2c(C)c(CN(C)C)c(C)nc2c1S(=O)(=O)c1ccccc1 [1.2.22(10).HCl]
9	CNc1nn2c(NC)cc(C)nc2c1S(=O)(=O)c1ccccc1 [1.2.12(1), 2,7-di(methylamino)-5-methyl-3-phenylsulfonyl-pyrazolo[1,5-a]pyrimidine]
15	CNc1nn2c(CN)cc(C)nc2c1S(=O)(=O)c1ccccc1 [1.2.24(1).HCl]
12	CNc1nn2c(N(C)C)cc(C)nc2c1S(=O)(=O)c1ccccc1 [1.2.12(2), 7-dimethylamino-5-methyl-2-methylamino-3-phenylsulfonyl-pyrazolo[1,5-a]pyrimidine]
22	CNc1nn2c(CN)cc(C)nc2c1S(=O)(=O)c1ccc(F)cc1 [1.2.24(2).HCl]
67	CNc1nn2c(C)cc(CN(C)C)nc2c1S(=O)(=O)c1cccc(Cl)c1 [1.2.23(11).HCl]
60	CNc1nn2c(C)cc(CN(C)C)nc2c1S(=O)(=O)c1ccccc1 [1.2.23(10).HCl]
22	CNc1nn2c(C)c(CN(C)C)c(C)nc2c1S(=O)(=O)c1cccc(Cl)c1 [1.2.22(11).HCl]
52	CNc1nn2c(C)c(Cl)c(C)nc2c1S(=O)(=O)c1ccccc1 [1.2(1)]
21	CNc1nn2c(CN(C)C)cc(C)nc2c1S(=O)(=O)c1ccccc1 [1.2.24(10).HCl]
33	CNc1nn2c(CN(C)C)cc(C)nc2c1S(=O)(=O)c1cccc(Cl)c1 [1.2.24(11).HCl]
6	CNc1nn2c(C)c(N(C)C)c(C)nc2c1S(=O)(=O)c1ccccc1 [1.2.22(24).HCl]
4	CNc1nn2c(C)cc(COC)nc2c1S(=O)(=O)c1ccccc1 [1.2.5(1), 7-methyl-2-methylamino-5-(methoxymethyl)-3-phenylsulfonyl-pyrazolo[1,5-a]pyrimidine]
172	CNc1nn2c(N(C)CCN(C)C)cc(C)nc2c1S(=O)(=O)c1ccccc1 [1.2.12(11)]
